Data published in patent US6583143B2, “CRF receptor antagonists and methods relating thereto” (Neurocrine Biosciences, Inc., priority 2000, dated 2003).

Target: T1, human CRF receptors (Homo sapiens, UniProt P34998)
T1 construct: expressed in transfected cells; membrane suspension of stably transfected cells
T1 sequence (P34998 24-415): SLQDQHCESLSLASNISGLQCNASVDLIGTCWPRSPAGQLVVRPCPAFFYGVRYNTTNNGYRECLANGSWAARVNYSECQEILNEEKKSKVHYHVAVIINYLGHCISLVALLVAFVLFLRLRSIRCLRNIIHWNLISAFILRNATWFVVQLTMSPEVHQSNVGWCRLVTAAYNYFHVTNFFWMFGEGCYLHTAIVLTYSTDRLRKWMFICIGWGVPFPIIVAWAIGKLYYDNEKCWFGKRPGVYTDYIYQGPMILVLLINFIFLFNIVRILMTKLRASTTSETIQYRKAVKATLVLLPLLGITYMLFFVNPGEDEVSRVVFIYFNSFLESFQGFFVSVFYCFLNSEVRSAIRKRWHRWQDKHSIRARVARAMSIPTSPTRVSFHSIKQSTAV
Experiment: CRF receptor radioligand binding assay (displacement of [125I]tyrosine-ovine CRF)
Conditions: CRF receptor binding affinity, assayed by the methods of Example 9
Description: The effectiveness of a compound as a CRF receptor antagonist may be determined by various assay methods. Suitable CRF antagonists of this invention are capable of inhibiting the specific binding of CRF to its receptor and antagonizing activities associated with CRF. A compound of structure (I) may be assessed for activity as a CRF antagonist by one or more generally accepted assays for this purpose, including (but not limited to) the assays disclosed by DeSouza et al. (J. Neuroscience 7:88, 1987) and Battaglia et al. (Synapse 1:572, 1987). […] CRF receptor affinity may be determined by binding studies that measure the ability of a compound to inhibit the binding of a radiolabeled CRF (e.g., [^125I]tyrosine-CRF) to its receptor (e.g., receptors prepared from rat cerebral cortex membranes). […]
The compounds of this invention may be evaluated for binding activity to the CRF receptor by a standard radioligand binding assay as generally described by DeSouza et al. (J. Neurosci. 7:88-100, 1987). […]
More specifically, the binding assay is performed in 1.5 ml Eppendorf tubes using approximately 1×10^6 cells per tube stably transfected with human CRF receptors. […] Following two washes of the pellets, the tubes are cut just above the pellet and monitored in a gamma counter for radioactivity at approximately 80% efficiency. […]

## CCCC(CCC)N1N=C(C)n2nc(-c3ccc(OC)cc3C)c3nc(C)cc1c32 [Compound 8-3]
  Ki: < 0.1 µM
